The values below come from US7291618B2, “Therapeutic compounds” (Pfizer Inc, priority 2004, dated 2007).

The conditions of series [1]: rat, in vivo, po, 5 mg/kg.
Description: (§1) In this experiment, male Sprague-Dawley rats (200-250 grams) implanted with jugular vein cannulas (JVC) were obtained from Charles River Laboratories. Each compound was administered to two rats or by oral gavage. The oral dose was administered as a solution in 0.5% methycellulose with a dose volume of 10 mL/kg. The amount of each compound administered was 5 mg/kg body weight. Blood samples (0.25 mL) were collected at multiple time points from 0-24 hours and placed into tubes containing lithium heparin (Becton Dickinson, Microtainer®). The blood samples were then centrifuged at 12000 rpm for 10 minutes). Plasma aliquots were taken for determination of compound plasma concentrations (pharmacokinetic analysis). The plasma samples were frozen at −70° C. until analysis.
(§2) The rat plasma samples were analyzed for compound concentrations by LC/MS/MS (Applied Biosystems API 4000 mass spectrometer). In brief, compound standard curves were prepared in control rat plasma with a dynamic range of 1.0-2000 ng/mL. Aliquots (0.02 mL) of both standards and samples Were placed into Marsh™ tubes in a 96-well block. Proteins were precipitated by addition of 0.1 mL acetonitrile containing 0.1 μg/mL of internal standard. The 96-well blocks were vortexed and then centrifuged at 3000 rpm for 5 minutes. The resulting supernatant was removed and placed into a new 96-well block and taken to dryness at 50° C. under a nitrogen stream. Residues were reconstituted in mobile phase (60% 5 mM ammonium acetate and 40% acetonitrile). Aliquots (0.01 mL) were then injected onto the LC/MS/MS for analysis.
A short description of series [2]: Comparative Rat Pharmacokinetics Experiments (plasma concentrations over time after oral gavage). To be noted: male, Sprague-Dawley, 5 mg/kg.
Description: as §1, §2
The next series concerns the target T1, DPP-IV (Homo sapiens, UniProt P27487).
T1 construct: purchased MP Biomedicals, Livermore, Calif
The series is described as follows: In vitro Assay for DPP-IV Inhibition. The class given is biochemical. To be noted: read-out: IC50 against DPP-IV. The protocol: 150 μL of an enzyme-substrate solution is pipetted into microtiter wells of a polystyrene 96-well plate, and maintained at 4° C. The enzyme-substrate solution comprises 50 μM Gly-Pro-4-methoxy-β-naphthylamide hydrochloride in 50 mM Tris assay buffer pH 7.3 containing 0.1M sodium chloride, 0.1% (v/v) Triton and 50 μU/mL DPP-IV (MP Biomedicals, Livermore, Calif.; DPP-IV 5 mU/mL stock). 5 μL per well of the compound of formula (I) is added, bringing the final concentrations of the formula (I) compound to between 3 μM and 10 nM per well.
Controls. Enzyme is omitted from four (4) wells, as a reagent blank. 5 μL of 3 mM Diprotin A (Bachem Bioscience, Inc.; King of Prussia, Pa.) is added to four wells as a positive quality control, providing a final Diprotin A concentration of 100 μM. To measure total enzyme activity (i.e., a negative control), without the influence of any compounds of formula (I), 5 μL of distilled water is added to four wells.
The entire assay is incubated overnight (between 14 and 18 hours) at 37° C. […]

T1 sequence (P27487 whole entry, species assumed): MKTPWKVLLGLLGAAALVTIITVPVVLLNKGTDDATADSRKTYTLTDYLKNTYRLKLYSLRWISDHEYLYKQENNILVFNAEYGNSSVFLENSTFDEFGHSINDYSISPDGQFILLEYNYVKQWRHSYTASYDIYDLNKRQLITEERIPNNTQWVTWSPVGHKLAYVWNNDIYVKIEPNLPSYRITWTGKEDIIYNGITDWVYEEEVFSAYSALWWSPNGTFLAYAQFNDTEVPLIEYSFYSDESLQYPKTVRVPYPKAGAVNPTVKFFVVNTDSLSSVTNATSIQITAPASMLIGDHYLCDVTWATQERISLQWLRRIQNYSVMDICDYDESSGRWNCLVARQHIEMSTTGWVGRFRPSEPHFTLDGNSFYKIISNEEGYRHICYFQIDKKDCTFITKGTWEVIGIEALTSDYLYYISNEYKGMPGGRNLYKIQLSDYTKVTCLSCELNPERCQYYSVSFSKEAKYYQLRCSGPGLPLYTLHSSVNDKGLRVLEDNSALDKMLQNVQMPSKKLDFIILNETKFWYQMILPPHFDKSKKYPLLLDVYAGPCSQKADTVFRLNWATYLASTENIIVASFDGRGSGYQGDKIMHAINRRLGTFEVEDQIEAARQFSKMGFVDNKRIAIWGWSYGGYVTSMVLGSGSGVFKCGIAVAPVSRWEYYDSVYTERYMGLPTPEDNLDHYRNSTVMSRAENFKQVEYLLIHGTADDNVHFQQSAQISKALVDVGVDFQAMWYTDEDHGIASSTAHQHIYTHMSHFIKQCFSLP

For `O=C([C@@H]1C[C@H](N2CCN(c3ncccn3)CC2)CN1)N1CCC(F)(F)C1` [CPD 113, (3,3-Difluoropyrrolidin-1-yl)-((2S,4S)-4-(4-(pyrimidin-2-yl)piperazin-1-yl)pyrrolidin-2-yl)-methanone], in series [1], the “plasma concentrations achieved and maintained, compared with the comparator compound” value is “significantly higher plasma concentrations”. In series [2], this compound gave a concentration at 0.25 h of 1410 ng/mL, a concentration at 0.5 h of 1320 ng/mL, a concentration at 0.75 h of 979 ng/mL and a concentration at 1 h of 768 ng/mL. For the same compound, in series [2], the concentration at 2 h is 289 ng/mL, the concentration at 4 h worked out at 97.8 ng/mL, the concentration at 6 h came to 49.3 ng/mL and the concentration at 8 h was found to be 32.8 ng/mL.

As to `N#Cc1nccnc1N1CCN([C@@H]2CN[C@H](C(=O)N3C[C@@H](F)[C@@H](F)C3)C2)CC1` (relative stereo) [Example 10, ((2S,4S)-4-(4-(3-Cyanopyrazin-2-yl)piperazin-1-yl)pyrrolidin-2-yl)-((3R*,4S*)-3,4-difluoropyrrolidin-1-yl)-methanone], on DPP-IV, the IC50 was 3.5 nM.
